In patent publication US20230250070A1, “DIHYDROOXAZOLE AND THIOUREA DERIVATIVES MODULATING THE NLRP3 INFLAMMASOME PATHWAY” (AC IMMUNE SA, priority 2020, published 2023):

What was measured:
[1] = test system: NLRP3 inflammasome pathway; assay: NLRP3 inflammasome pathway activation assay, MSU stimulation, IL-1β release (AlphaLISA); format: cell-based; conditions: PMA-differentiated, LPS-primed human monocyte-like cells, MSU 150 µg/ml for 3 h
Method: (§1) The following assays were used to determine the inhibitory activity of test compounds on the NLRP3 inflammasome pathway using common stimuli Nigericin (Invivogen) or monosodium urate crystals (MSU) (Invivogen).
(§2) Human monocyte-like cells were cultured in RPMI-1640 Glutamax medium supplemented with 10% heat inactivated FCS and 50 U/ml penicillin-streptomycin (Life Technologies).
(§3) Human monocyte-like cells were seeded at 75000 per well in a 96-well plate and were differentiated overnight into macrophages with 10 ng/ml PMA (Phorbol Myristate Acetate). The following day, medium containing 10 ng/ml LPS (Lipopolysaccharide) were added. After 3 hours of LPS priming, concentrations of test compound in the range from 100 µM to 6 nM were added 30 min prior to NLRP3 inflammasome pathway stimulation with Nigericin 3.75 µM or MSU 150 µg/ml for 3 h.
(§4) For IL-1β quantification, supernatants were analyzed using AlphaLISA kits according to the manufacturer’s instructions (Perkin Elmer AlphaLISA AL220F). Briefly, in a 384-well OptiPlate™ microplate, 5 µl of sample was mixed, with 20 µl of AlphaLISA Anti-Analyte Acceptor beads (10 µg/mL final) and Biotinylated Antibody Anti-Analyte (1 nM final). Then, incubated 60 minutes at RT, then 25 µL of 2X SA-Donor beads (40 µg/mL final) were added and incubated 30 minutes at RT in the dark. Reading was done using an EnVision-Alpha Reader (PerkinElmer).
(§5) IC50(concentration corresponding to 50% inhibition) were determined using GraphPad Prism 8.

[2] = test system: NLRP3 inflammasome pathway; assay: NLRP3 inflammasome pathway activation assay, Nigericin stimulation, IL-1β release (AlphaLISA); format: cell-based; conditions: PMA-differentiated, LPS-primed human monocyte-like cells, Nigericin 3.75 µM for 3 h
Method: as §1, §2, §3, §4, §5

[3] = test system: NLRP3 inflammasome pathway; assay: Human whole blood assay (LPS-ATP), IL-1β levels by AlphaLISA; format: cell-based; conditions: LPS priming, ATP activation 1 h, IL-1β in plasma
Method: • Preliminary blood hemolysis assessment was performed before running the assay. Blood samples were centrifuged at 1000 g for 10 min. Then, 50 to 100 µL of blood were transferred into Corning™96-Well Clear flat bottom plate. Hemolysis was assessed via Tecan at 414 nm wavelength. Hemolysis O.D. values should be lower than 1. • Add 10 µL LPS 9× or CTRL following plate layout. • Add 80 µL of each whole blood/well in PP low-bind 96-well plate. • Incubate for 2h30 to 3 h at 37° C. and 5% CO2. • Add 10 µL of compounds 10× or control in wells following plate layout. • Incubate for 30 min at 37° C. and 5% CO2. • Add 11 µL ATP 10× or control in all wells following plate layout. • Incubate for 1 h at 37° C. and 5% CO2. • Collect 1 h timepoint → Centrifuge the plate 1000 g 10 min, collect the plasma (40 to 50 µL) and store at -20° C. • Measure IL-1β levels by AlphaLISA
as §4, §5

[4] = test system: NLRP3 inflammasome pathway; assay: LPS-ATP induced peritonitis mouse model, IL-1β in peritoneal lavage; format: in vivo, C57BL/6 female mice; conditions: for inhibition of IL-1β release in peritoneal lavage samples (FIG. 1): mice dosed 1 mg/kg or 3 mg/kg by intraperitoneal injection, n=6, p<0.0001 vs vehicle-treated group; for % IL-1 beta inhibition vs vehicle (peritoneal lavage samples): mice, intraperitoneal 1 mg/kg or 3 mg/kg (dose not given), 15 min before ATP
Method: C57BL/6 female mice aged 6 to 8 weeks were randomized into experimental groups. Mice were challenged intraperitoneally with 50 µg/kg LPS. Two hours later, mice received i.p. 200 µL of ATP (Adenosine TriPhosphate) 50 mM, pH 7.2. Compounds were administered intraperitoneally at 1 mg/kg or 3 mg/kg, 15 minutes before ATP injection. Thirty minutes after ATP injection, animals were sacrificed by CO2. Cardiac blood was collected through heart puncture. Peritoneal lavage was performed with a total volume of 4 mL of sterile saline solution with intact peritoneum. IL-1b levels were assessed in peritoneal lavage samples via AlphaLisa. Results were expressed as % reduction compared to vehicle-treated group.
as §4

Compound	IC50 [1]	IC50 [2]	IC50 [3]	inhibition of IL-1β release in peritoneal lavage samples (FIG. 1) [4]	% IL-1 beta inhibition vs vehicle (peritoneal lavage samples) [4]	IC50 ([2]; Homo sapiens, 3 h)
CCOC(=O)C1(c2cc(C(C)(C)O)on2)CN=C(Nc2c3c(cc4c2CCC4)CCC3)O1 (single isomer, unassigned) [Example 16, Ethyl 2-((1,2,3,5,6,7-hexahydro-s-indacen-4-yl)amino)-5-(5-(2-hydroxypropan-2-yl)isoxazol-3-yl)-4,5-dihydrooxazole-5-carboxylate]	< 1000 nM	< 1000 nM	< 1000 nM	significant inhibition	99%	–
CCOC(=O)C1(c2ccon2)CN=C(Nc2c3c(cc4c2CCC4)CCC3)O1 (single isomer, unassigned) [Example 21Bb]	< 1000 nM	–	< 1000 nM	–	73%	–
CC(C)OC(=O)C1(c2ccon2)CN=C(Nc2c3c(cc4c2CCC4)CCC3)O1 (single isomer, unassigned) [Example 59, isopropyl 2-((1,2,3,5,6,7-hexahydro-s-indacen-4-yl)amino)-5-(isoxazol-3-yl)-4,5-dihydrooxazole-5-carboxylate]	< 1000 nM	–	1000 to 10000 nM	–	–	–
CC(C)(O)c1cc(C2(C(=O)O)CN=C(Nc3c4c(cc5c3CCC5)CCC4)O2)no1 (centres unmarked) [Example 22, 2-((1,2,3,5,6,7-hexahydro-s-indacen-4-yl)amino)-5-(5-(2-hydroxypropan-2-yl)isoxazol-3-yl)-4,5-dihydrooxazole-5-carboxylic Acid]	< 1000 nM	–	–	–	–	1000 to 10000 nM
CC(C)(O)c1cc(C2(C(=O)O)CN=C(Nc3c4c(cc5c3CCC5)CCC4)O2)no1 (centres unmarked) [Example 23, 2-((1,2,3,5,6,7-hexahydro-s-indacen-4-yl)amino)-5-(5-(2-hydroxypropan-2-yl)isoxazol-3-yl)-4,5-dihydrooxazole-5-carboxylic acid]	–	< 1000 nM	1000 to 10000 nM	significant inhibition	>99%	–
O=C(O)C1(c2nccs2)CN=C(Nc2c3c(cc4c2CCC4)CCC3)O1 (centres unmarked) [Example 24, 2-((1,2,3,5,6,7-hexahydro-s-indacen-4-yl)amino)-5-(thiazol-2-yl)-4,5-dihydrooxazole-5-carboxylic acid]	1000 to 10000 nM	–	1000 to 10000 nM	–	–	–
O=C(O)C1(c2ccon2)CN=C(Nc2c3c(cc4c2CCC4)CCC3)O1 (centres unmarked) [Example 29, 2-((1,2,3,5,6,7-hexahydro-s-indacen-4-yl)amino)-5-(isoxazol-3-yl)-4,5-dihydrooxazole-5-carboxylate]	< 1000 nM	–	1000 to 10000 nM	–	–	–
CCOC(=O)C(O)(CNC(=S)Nc1c2c(cc3c1CCC3)CCC2)c1cc(C(C)C)on1 (centres unmarked) [Example 46, ethyl 3-(3-(1,2,3,5,6,7-hexahydro-s-indacen-4-yl)thioureido)-2-hydroxy-2-(5-isopropylisoxazol-3-yl)propanoate]	1000 to 10000 nM	< 1000 nM	–	–	–	–
O=C(OC1CCCC1)C1(c2ccon2)CN=C(Nc2c3c(cc4c2CCC4)CCC3)O1 (centres unmarked) [Example 58, Cyclopentyl 2-((1,2,3,5,6,7-hexahvdro-s-indacen-4-vl)amino)-5-(isoxazol-3-yl)-4,5-dihydrooxazole-5-carboxylate]	< 1000 nM	–	1000 to 10000 nM	–	–	–
Ethyl 2-((1,2,3,5,6,7-hexahydro-s-indacen-4-yl)amino)-5-(tetrahvdro-2H-pyran-4-yl)-4,5-dihydrooxazole-5-carboxylate [Example 12]	1000 to 10000 nM	1000 to 10000 nM	–	–	–	–
